{
  "source": "paper PMC12657321",
  "about": "“Pre-clinical evaluation of a potent and effective Pin1-degrading agent in pancreatic cancer” (Molecular Therapy Oncology, 2025)",
  "key": {"Pin1 in BxPC3 cells": {"target": "Pin1 in BxPC3 cells (Homo sapiens, UniProt Q13526)", "sequence (Q13526 whole entry)": "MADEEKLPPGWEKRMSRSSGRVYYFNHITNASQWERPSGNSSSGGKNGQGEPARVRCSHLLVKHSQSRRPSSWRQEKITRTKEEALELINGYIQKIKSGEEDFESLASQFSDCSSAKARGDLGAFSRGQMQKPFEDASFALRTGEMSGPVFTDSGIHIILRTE", "experiment": "Pin1 degradation by western blot in BxPC3 cells", "assay_type": "cell-based", "set-up": "endogenous in cells; host or cells: BxPC3, MIA PaCa-2", "conditions": "BxPC3, 0.5-15 μM for 24 h, Pin1 relative to β-actin", "protocol": "To ascertain that the plasma-stable agent 164B8 retained its ability to induce Pin1 degradation in cells, we tested it in three pancreatic cancer cell lines—human BxPC3 and MIA PaCa-2, and the mouse pancreatic cancer cell line KPC—using western blot analysis (Figure 2).\nFigure 2 Degradation of Pin1 in different cell lines in response to 164B8 treatment BxPC3, MIA PaCa-2, and KPC were each treated with 0.1% DMSO and concentrations of 164B8 ranging between 0.5 and 15 μM for 24 h, and Pin1 levels were quantified with respect to β-actin using a specific anti-Pin1 antibody and western blotting (uncropped blots are reported in Figure S6).\nAt the end of the treatments, cells were lysed with a lysis buffer containing 20 mM Tris (pH 7.4), 1% Triton X-100, 5 mM EDTA, 0.1% sodium dodecyl sulfate (SDS), 1% IGEPAL, 0.5% sodium deoxycholate, 120 mM NaCl, and a protease inhibitor cocktail and PhosSTOP (Sigma-Aldrich). Lysates were then centrifuged at 16,000 × g for 20 min at 4°C, and the supernatants were collected. Protein concentrations were determined using the Pierce BCA Protein Assay Kit (Thermo Fisher Scientific) according to the manufacturer’s protocol. For traditional western blotting (Figure 2), samples were loaded onto precast Bis-Tris gels and subsequently transferred onto PVDF membranes. […]"}, "NSG mice": {"test_system": "NSG mice", "experiment": "Toxicity after repeated doses in NSG mice (CBC, observation)", "assay_type": "in vivo, mouse", "protocol": "Figure 6 Toxicity of 164B8 after repeated doses in NSG mice Blood from mice treated as described in Figure 5 was collected and evaluated at the end of the experiment. Peripheral blood from mice was collected and analyzed by standard complete blood count (CBC). (A) Body weight, (B) white blood cell (WBC) counts (×10^9 cells/L), (C) hemoglobin (HGB) concentration (g/dL), and (D) platelet counts (×10^9 cells/L, log scale) in peripheral blood were determined. Data are presented as individual values with mean ± SD. Dotted horizontal lines indicate physiological reference ranges. Statistical comparisons were performed using one-way AVOVA; p values are shown in each panel.\nBioluminescent imaging (BLI) was performed one week post-inoculation. Based on imaging intensity, mice were re-grouped to ensure six animals per group. The PIN1 inhibitor was administered via intraperitoneal injection at doses of 30 mg/kg or 60 mg/kg, once daily, 5 days per week for 2 weeks. Tumor engraftment and growth were monitored by in vivo BLI. D-luciferin potassium salt was dissolved in sterile PBS to a final concentration of 16.6 mg/mL and mice were injected intraperitoneally with D-luciferin solution (0.139 g luciferin/kg body weight), then imaged 10–15 min after luciferin injection using an IVIS Spectrum Imaging System (Lago X) with identical exposure times and binning settings for all mice. Bioluminescence signal intensity was quantified as total flux (photons/s) within a region of interest (ROI) using Aura image software. BLI was performed once every week during the treatment. After 2 weeks of treatment, mice were euthanized 6 h after the final dose. Blood samples were collected via cardiac puncture, and normal peritoneum, intestine, and liver tissues were harvested and snap-frozen on dry ice."}, "[1]": {"experiment": "Wild-type mouse plasma stability", "assay_type": "in vitro ADME", "conditions": "37°C, up to 6 h, acetonitrile quench, LC-MS/MS, value given in h, read-out: Stability half-life, Mouse WT (converted)", "protocol": "A solution of a Pin1 inhibitor was spiked into blank plasma at 1 μg/mL in various solutions, including an aqueous buffer (1× phosphate-buffered saline; Fisher Scientific, Fair Lawn, NJ), human plasma (Innovative Research Inc., Novi, MI), wild-type mouse plasma (Innovative Research Inc., Novi, MI), plasma form esterase-deficient mice (City of Hope, Duarte, CA), and plasma from Black 6-Cg mice (City of Hope, Duarte, CA).\nThe spiked plasma samples were incubated at 37°C for up to 6 h. At each designated time point, a 20 μL aliquot of the incubation sample was removed and quenched in 100 μL of acetonitrile. At the end of the incubation, the quenched samples were vortexed and centrifuged for 10 min at 4°C and 20,000 × g. The resulting supernatant was reconstituted and analyzed by LC-MS/MS.\nTable S2. Stability half-life of agents reported in Table 1 after incubation at 37 °C in various media. Acq represents aqueous buffer composed of 1x phosphate buffered saline (Fisher Scientific, Fair Lawn, NJ); human represents human plasma (Innovative Research Inc., Novi, MI); mouse wt represents wild type mouse plasma (Innovative Research Inc., Novi, MI); mouse ES1e represents plasma form esterase deficient mice (City of Hope, Duarte, CA); mouse B6-Cg represents plasma from black 6-Cg mice (City of Hope, Duarte, CA). See Figure 1 for the chemical structures of these compounds.\nCompound Acq Human Mouse Mouse ES1e Mouse"}, "[2]": {"conditions": "30 mg/kg i.p. for 2 weeks, blood at end of experiment"}},
  "note": "Non-standard residues stand in square brackets, D forms with d. Residues, ends and D or L forms follow the SMILES beside them. *: point of attachment. Trp(6-Cl) = N[C@@H](Cc1c[nH]c2cc(Cl)ccc12)C(=O)O; Pip = O=C(O)[C@@H]1CCCCN1; ClAc = O=C(CCl)*",
  "data": [
    {"compound": "CNC(=O)[C@H](Cc1c[nH]c2ccccc12)NC(=O)[C@@H]1CCCCN1C(=O)[C@H](Cc1c[nH]c2cc(Cl)ccc12)NC(=O)CCl", "note": "[164B8] (ClAc-[Trp(6-Cl)]-[Pip]-Trp-NHMe)", "values": [
      {"measurement": "DC50 of Pin1 degradation", "setting": "Pin1 in BxPC3 cells", "result": "sub-micromolar"},
      {"measurement": "Tolerability of repeated dosing", "setting": "NSG mice; 30 mg/kg i.p. for 2 weeks", "result": "generally well tolerated"},
      {"measurement": "Anemia (hemoglobin, CBC)", "setting": "NSG mice; [2]", "result": "mild anemia"},
      {"measurement": "Thrombocytopenia (platelet counts, CBC)", "setting": "NSG mice; [2]", "result": "moderate thrombocytopenia"},
      {"measurement": "Mice euthanized because of ascites development", "setting": "NSG mice; 60 mg/kg i.p. for 2 weeks, final time point, no obvious carcinomatosis", "result": "two of six mice"},
      {"measurement": "half-life at 1 μg/mL", "setting": "[1]", "result": "~4.5", "unit": "h"}
    ]}
  ]
}
